Assay results published in patent US20040039048A1, “Therapy with cannabinoid compounds for the treatment of brain tumors” (priority 2000, published 2004).
“Also recorded” adds a separate entry of the source. Read-outs that look alike come from different tables or passages of the source.

Assays:
C6 glioblastoma cells [1] = assay: Viability of C6 glioblastoma culture cells (MTT method); type: cell-based; conditions: for prevention of cell death induced by THC, the two antagonists SR141716 and SR144528 jointly added: 1 μM SR141716 and 1 μM SR144528, 5 days; for IC50: after 5 days of exposure, n=4, read-out: concentration reducing viability of C6 glioblastoma by 50%
Description: Experiments were conducted with the object of obtaining a pharmacological characterization of cannabinoid-induced death of C6 glioblastoma culture cells.
C6 glioblastoma cells were cultivated at 37° C. and 5% CO2 in F-12 medium supplemented with calf fetal serum at 10%. 24 h before the start of the experiment the cells were transferred to an F-12 medium free of serum and supplemented with insulin (5 μg/ml), transferrine (10 μg/ml), sodium selenite (5 μg/ml) and delipidized and dialyzed BSA (10 mg/ml). The medium was renovated every 48 h and the cell viability was determined by the MTT method (Sanchez, C., Galve-Roperh, I., Canova, C., Brachet, P. & Guzman, M., op cit.).

C6 glioblastoma cells [2] = assay: C6 glioblastoma cells inoculated subcutaneously in immunodeficient RAG-2-/- mice; tumor size; type: in vivo; conditions: 500 μg of THC or 50 μg of WIN-55,212-2 per day for 7 days, caliper, P<0.01 Student t test
Description: In order to discern whether the antiproliferative action of cannabinoids was due to a direct effect on the tumoral cells or to an indirect effect mediated by an immune response, C6 glioblastoma cells were inoculated subcutaneously in mice with a deficiency of recombinase RAG-2 (RAG-2^-/-), which lack mature T and B lymphocytes (Shinkai et al. Cell 68, 855-867, 1992).
Tumors were induced in RAG-2^-/- […] by subcutaneous inoculation of 5×10^6 C6 glioblastoma cells in 100 μl of PBS supplemented with 0.1% glucose. […] The tumor sizes were measured by a caliper and their volume calculated according to (4π/3)×(width/2)^2×(length/2). […] In FIG. 4b are shown examples of tumor bearing mice and tumors dissected after treatment with or without cannabinoids for 7 days.

C6 glioblastoma cells [3] = assay: C6 glioblastoma cells inoculated in rat brain; survival and magnetic resonance; type: in vivo, Wistar rats
Description: C6 glioblastoma cells were directly inoculated in the brain of Wistar rats and the tumors viewed by magnetic resonance. […] To evaluate the antitumoral potential of the cannabinoids, 12 days after inoculating the cells a group of animals was administered THC or WIN-55, 212-2 for 7 days through a cannula located at the site of inoculation.
Male Wistar rats (250-300 g in body mass) were anaesthetized with 3% isofluorane in an oxygen mixture (0.8 l/min) and protoxide (0.4 l/min). 5×10^8 C6 glioblastoma cells were prepared in 100 μl of saline solution buffered with phosphate (PBS) and supplemented with 0.1% glucose, and stereotaxically injected in the frontal parietal lobule of the right hemisphere (4 mm to the right of bregma, 4.5 mm depth from the cranium) (Izquierdo, M et al., Gene Ther. 2, 66-69, 1995). The rats received dexamethasone (2 mg/l) and tetracycline (75 mg/kg of body weight) in water for 3 days before and 7 days after inoculation of the cells. A thorough monitoring of the tumors was performed by magnetic resonance with the methods described by other authors (Izquierdo, M et al., op cit; Cortés, M. L., de Felipe, P., Martin, V. Hughes, M. A. & Izquierdo, M. Gene Ther. 5, 1499-1507, 1998).
The administration of cannabinoids to rats began 12 days after inoculation of the cells. At this time the average size of the tumors was 70 mm^3 (interval 25-100 mm^3) as estimated by magnetic resonance (Izquierdo, M et al., op cit; Cortés, de Felipe, Martin, Hughes & Izquierdo, M, op cit.). Cannabinoids were administered by a cannula placed at the place of inoculation of the tumor and attached to the cranium by dental cement; a small stainless steel screw anchored the cannula and the dental cement. The cannula was subcutaneously connected by a catheter to an osmotic mini-pump (Alzet 2001) which operated at a flow of 1 μl/h for 7 days. The osmotic pump was filled with 500-2500 μg of THC or 50-250 μg of WIN-55,212-2 in 200 μl of PBS supplemented with 5 mg/l of bovine serum albumin (BSA), delipidized and dialyzed.

[4] = fraction of treated animals, 7 days through cannula from day 12

Row | Compound | prevention of cell death induced by THC, the two antagonists SR141716 and SR144528 jointly added (C6 glioblastoma cells [1]; 1 μM THC) | IC50 (C6 glioblastoma cells [1]; 120 h) | size of tumors versus control animals (C6 glioblastoma cells [2]) | IC50 (C6 glioblastoma cells [1]) | further results
1 | Cc1c(C(=O)NN2CCCCC2)nn(-c2ccc(Cl)cc2Cl)c1-c1ccc(Cl)cc1 [SR141716] | prevented |  |  |  | prevention of cell death induced by THC, antagonist added separately (C6 glioblastoma cells [1]; 1 μM THC, 1 μM antagonist, 5 days): Neither
2 | CCCCCCC(C)(C)c1cc(O)c2c(c1)OC(C)(C)[C@@H]1CC=C(CO)C[C@@H]21 [HU-210] |  | 10 nM |  |  | 
3 | CCCCCc1cc(O)c2c(c1)OC(C)(C)[C@@H]1CCC(C)=C[C@@H]21 [THC, Δ^9-tetrahydrocannabinol] |  | 480 nM | extraordinarily smaller; also recorded: much smaller |  | induction of death of C6 glioblastoma cells (C6 glioblastoma cells [1]; 1 μM THC, 5 days, n=6): capable of inducing the death
4 | CCCCCCC(C)(C)c1ccc([C@@H]2C[C@H](O)CC[C@H]2CCCO)c(O)c1 [CP-55,940] |  |  |  | 45 nM | 
5 | Cc1c(C(=O)c2cccc3ccccc23)c2cccc3c2n1[C@H](CN1CCOCC1)CO3 [WIN-55,212-2] |  |  | much smaller | 20 nM | size of tumors versus control animals (C6 glioblastoma cells [2]; 212-2): extraordinarily smaller; survival time (C6 glioblastoma cells [3]; days after inoculation, in the responding animals, cannabinoid for 7 days through cannula at site of inoculation from day 12, untreated died 12-18 days): 19 to 43 days; animals with increased survival time (C6 glioblastoma cells [3]; [4]): 4/15; animals with tumor completely eradicated (C6 glioblastoma cells [3]; [4]): 5/15
6 | SR144528 | prevented |  |  |  | 
